Source: paper PMC7400207, “It Takes Two: Dimerization Is Essential for the Broad-Spectrum Predatory and Defensive Activities of the Venom Peptide Mp1a from the Jack Jumper Ant Myrmecia pilosula” (Biomedicines, 2020)
Like-named read-outs stand apart in the source and are kept apart here. Marks after values point to notes of the source that are not given here.

Assays:
F11 cells = assay: FLIPR calcium assay, activation of F11 cells; assay type: cell-based; details: for Concentration at which cytolysis (rapid increase in fluorescence followed by decrease to or below baseline) was observed / EC50 / Neuronal Cell Activation (EC50): F11 cells, FLIPR; for EC50 / Neuronal Cell Activation (EC50): Calcium 4 dye, max-min fluorescence in 300 s after peptide addition, PSS with 0.1% BSA, mean ± SEM, triplicate; for EC50: read-out: Neuronal Cell Activation (EC50)
Protocol: F11 cells were cultured as previously described. Cells were maintained on Ham’s F12 media supplemented with 10% fetal bovine serum (FBS), 100 µM hypoxanthine, 0.4 µM aminopterin, and 16 µM thymidine (Hybri-MaxTM, Sigma Aldrich, North Ryde, Australia). Then, 384-well imaging plates (Corning) were seeded 48 h prior to imaging resulting in 90–95% confluence at imaging. Cells were incubated for 30 min with the Calcium 4 assay component A according to the manufacturer’s instructions (Molecular Devices, Sunnyvale, CA, USA) in physiological salt solution (PSS; composition in mM: 140 NaCl, 11.5 D-glucose, 5.9 KCl, 1.4 MgCl2, 1.2 NaH2PO4, 5 NaHCO3, 1.8 CaCl2, 10 HEPES) at 37°C. Fluorescence was measured using a fluorescent imaging plate reader (FLIPR^TETRA) equipped with a CCD camera (Excitation: 470–490 nm, Emission: […]) (Molecular Devices, Sunnyvale, CA, USA). Signals were read every second for 10 s before, and 300 s after the addition of peptides in PSS supplemented with 0.1% bovine serum albumin. All data are the mean ± SEM of assays performed in triplicate. Maximum–minimum fluorescence in the 300 s period after peptide addition was recorded as the response. Concentration–response data were fitted with a four-parameter Hill equation (variable slope) using GraphPad Prism 8 to obtain effective concentration (EC50) values.

human red blood cells = details: cited from earlier work
Protocol: Table 2 Summary of bioassay data for synthetic Mp1a and analogues, including effective concentration (EC50) for activation of F11 cells, concentrations that caused 50% inhibition (IC50) for inhibition of larval development of H. contortus; median lethal dose (LD50) for lethal insecticidal effects on D. melanogaster; concentrations required to induce 50% cell death (CC50) for effects on viability o | column: Hemolysis (HC50 µM) ^b

Drosophila melanogaster = Drosophila melanogaster microinjection assay; assay type: in vivo; details: intrathoracic injection, 50 nL, adult female flies, lethality at 24 h; three dose-response curves, ± SEM
Protocol: The insecticidal activity of the chemically synthesized 1a and analogues thereof were determined by injection into adult female D. melanogaster aged 3–5 days (mass 0.7–0.9 mg) as described previously. Analogues were dissolved in water and intrathoracically injected using pulled glass capillaries at a volume of 50 nL per fruit fly, and the results were compared against an equivalent injection volume of water alone. All injections were performed in the morning or early afternoon. At 24 h post-injection flies were monitored for lethality. Dose–response curves were constructed using 7–10 doses per analogue (each dose tested in eight flies) and three separate dose–response curves were constructed for each analogue. The lethality in the groups receiving the analogues were adjusted using the respective control group lethality using the Henderson-Tilton formula [20]. The median lethal dose (LD50) of each analogue was calculated based on the three dose–response curves using GraphPad Prism 8.0 [21]. One-way ANOVA followed by Dunnett’s multiple comparison test were used to compare LD50 values.

HEK293 cells = details: HEK293, 24 h, resazurin; cited from earlier work
Protocol: Table 2 Summary of bioassay data for synthetic Mp1a and analogues, including effective concentration (EC50) for activation of F11 cells, concentrations that caused 50% inhibition (IC50) for inhibition of larval development of H. contortus; median lethal dose (LD50) for lethal insecticidal effects on D. melanogaster; concentrations required to induce 50% cell death (CC50) for effects on viability o | column: Cytotoxicity (CC50 µM) ^b

Haemonchus contortus = assay: microbe, parasite or virus in culture; assay type: cell-based; details: for IC50: read-out: Anthelmintic Activity (IC50), inhibition of larval development
Protocol: Sheep were infected with H. contortus Kirby isolate (field isolate from the University of New England Kirby Research Farm in 1986; susceptible to all commercial anthelmintics) and housed at the Commonwealth Scientific and Industrial Research Organisation (CSIRO) FD McMaster Laboratory, Armidale, NSW. All animal procedures were approved by the FD McMaster Animal Ethics Committee, CSIRO (Approval Number AEC 17/12, approval date 15.6.2017). Eggs were prepared from overnight fecal collection as described. In brief, feces were filtered through mesh filters, settled, and supernatant removed by vacuum. Eggs were recovered by density centrifugation using 10 and 25% (w/v) sucrose solutions, centrifuged at 650× g for 7 min. Eggs were recovered from the interface of the two sucrose layers, rinsed with distilled water, sterilized with bleach, rinsed again, and diluted to 4500 eggs/mL. Tylosin tartrate (800 μg/mL) and amphotericin B (25.0 μg/mL) were added, and eggs were used immediately for larval development assays.
Assays were conducted using 96-well microtitre plates, with each well containing 50 μL of 2% agar, 20 μL of egg solution and 20 μL of peptide solution in water. The commercial anthelmintic levamisole (Sigma Aldrich) was used as a positive control (final 1% v/v). Negative controls contained equivalent volumes of water or DMSO (final 1% v/v). Plates were incubated at 26 °C for six days. After 24 h, each well was fed with 10 μL of a nutrient solution containing Escherichia coli XL1-Blue1 (grown overnight at 37 °C) and growth medium. The growth medium consisted of yeast extract (1% w/v), Earle’s salt solution (10% v/v), saline solution (0.9% NaCl, w/v), and sodium bicarbonate (1 mM) in Luria-Bertani medium (LB). Larvae were killed and stained with Lugol’s iodine solution after six days. Larvae that had developed to the infective L3 stage were counted, and the numbers in treated assay wells were expressed as a percentage of the number of infective L3 stage larvae in multiple control wells. Concentrations that caused 50% inhibition (IC50 values) were calculated from three experiments of duplicate assays.

[1] = H. contortus Kirby isolate, egg to infective L3, 6 days, 26 °C, three experiments of duplicate assays, ± SEM, for 1a the component at higher concentrations (about 90% of population)

| Molecule | Concentration at which cytolysis (rapid increase in fluorescence followed by decrease to or below baseline) was observed (F11 cells) | EC50 (F11 cells) | Hemolysis (HC50) (human red blood cells) | Insecticidal Activity (LD50) (Drosophila melanogaster) | Cytotoxicity (CC50) (HEK293 cells) | IC50 (Haemonchus contortus; [1]) | Fold less active than levamisole (IC50 higher) (Haemonchus contortus; larval development, drug-susceptible isolate) | Neuronal Cell Activation (EC50) (F11 cells) | IC50 (Haemonchus contortus; Haemonchus contortus, 144 h) | Fold less active than native Mp1a (1a), F11 cell activation (F11 cells; ratio of EC50 values) |
| --- | --- | --- | --- | --- | --- | --- | --- | --- | --- | --- |
| CC[C@H](C)[C@H](N)C(=O)N[C@@H](CC(=O)O)C(=O)N[C@@H](Cc1c[nH]c2ccccc12)C(=O)N[C@@H](CCCCN)C(=O)N[C@@H](CCCCN)C(=O)N[C@H](C(=O)N[C@@H](CC(=O)O)C(=O)N[C@@H](Cc1c[nH]c2ccccc12)C(=O)N[C@@H](CCCCN)C(=O)N[C@@H](CCCCN)C(=O)N[C@H](C(=O)N[C@@H](CO)C(=O)N[C@@H](CCCCN)C(=O)N[C@@H](CCCCN)C(=O)N[C@H](C(=O)N[C@H]1CSSC[C@@H](C(=O)N[C@@H](CCCCN)C(=O)N[C@@H](CCCCN)C(=O)N[C@H](C(=O)N[C@@H](CC(C)C)C(=O)N[C@@H](CCCCN)C(=O)N[C@@H](CCC(N)=O)C(N)=O)C(C)C)NC(=O)[C@H](C(C)C)NC(=O)[C@H]([C@@H](C)O)NC(=O)[C@H](CCCCN)NC(=O)[C@H](C(C)C)NC(=O)[C@H](CC(C)C)NC(=O)[C@H](C(C)C)NC(=O)[C@@H](NC(=O)[C@@H](NC(=O)CNC(=O)[C@H](CCCCN)NC(=O)[C@H](CO)NC(=O)[C@@H](NC(=O)[C@H](CC(C)C)NC(=O)CNC(=O)[C@@H](NC(=O)[C@@H](N)CC(C)C)[C@@H](C)CC)C(C)C)[C@@H](C)O)CSSC[C@@H](C(=O)N[C@@H](CCCCN)C(=O)N[C@@H](Cc2ccccc2)C(=O)N[C@@H](CC(C)C)C(N)=O)NC(=O)[C@H](C)NC(=O)[C@H](CCCCN)NC(=O)[C@H](C)NC(=O)[C@H](CCSC)NC(=O)[C@H](C(C)C)NC(=O)[C@H](CCCCN)NC1=O)[C@@H](C)O)C(C)C)C(C)C [Analogue 1d] | ≥ 1 µM | 3.38 ± 2.8 µM | > 12 µM | 578 ± 9.7 ^a pmol/g | 0.7 µM | 9.5 ± 0.3 µM | approximately 10 fold |  |  |  |
| CC[C@H](C)[C@H](N)C(=O)N[C@@H](CC(=O)O)C(=O)N[C@@H](Cc1c[nH]c2ccccc12)C(=O)N[C@@H](CCCCN)C(=O)N[C@@H](CCCCN)C(=O)N[C@H](C(=O)N[C@@H](CC(=O)O)C(=O)N[C@@H](Cc1c[nH]c2ccccc12)C(=O)N[C@@H](CCCCN)C(=O)N[C@@H](CCCCN)C(=O)N[C@H](C(=O)N[C@@H](CO)C(=O)N[C@@H](CCCCN)C(=O)N[C@@H](CCCCN)C(=O)N[C@H](C(=O)N[C@H]1CSSC[C@@H](C(=O)N[C@@H](CCCCN)C(=O)N[C@@H](Cc2ccccc2)C(=O)N[C@@H](CC(C)C)C(N)=O)NC(=O)[C@H](C)NC(=O)[C@H](CCCCN)NC(=O)[C@H](CC(C)C)NC(=O)[C@H](CCSC)NC(=O)[C@H](C(C)C)NC(=O)[C@H](CCCCN)NC1=O)[C@@H](C)O)C(C)C)C(C)C [Analogue 3a] |  |  | > 20 µM | > 600 pmol/g | > 20 µM | 46.8 ± 0.6 µM |  | inactive |  |  |
| c1ccc([C@H]2CN3CCSC3=N2)cc1 [levamisole, reference compound] |  |  |  |  |  |  |  |  | 0.68 µM |  |
| CC[C@H](C)[C@H](N)C(=O)N[C@@H](CC(=O)O)C(=O)N[C@@H](Cc1c[nH]c2ccccc12)C(=O)N[C@@H](CCCCN)C(=O)N[C@@H](CCCCN)C(=O)N[C@H](C(=O)N[C@@H](CC(=O)O)C(=O)N[C@@H](Cc1c[nH]c2ccccc12)C(=O)N[C@@H](CCCCN)C(=O)N[C@@H](CCCCN)C(=O)N[C@H](C(=O)N[C@@H](CO)C(=O)N[C@@H](CCCCN)C(=O)N[C@@H](CCCCN)C(=O)N[C@H](C(=O)N[C@H]1CSSC[C@H](NC(=O)[C@@H](NC(=O)CNC(=O)[C@H](CCCCN)NC(=O)[C@H](CO)NC(=O)[C@@H](NC(=O)[C@H](CC(C)C)NC(=O)CNC(=O)[C@@H](NC(=O)[C@@H](N)CC(C)C)[C@@H](C)CC)C(C)C)[C@@H](C)O)C(=O)N[C@@H](C(C)C)C(=O)N[C@@H](CC(C)C)C(=O)N[C@@H](C(C)C)C(=O)N[C@@H](CCCCN)C(=O)N[C@@H]([C@@H](C)O)C(=O)N[C@@H](C(C)C)C(=O)N[C@H](C(=O)N[C@@H](CCCCN)C(=O)N[C@@H](CCCCN)C(=O)N[C@H](C(=O)N[C@@H](CC(C)C)C(=O)N[C@@H](CCCCN)C(=O)N[C@@H](CCC(N)=O)C(N)=O)C(C)C)CSSC[C@@H](C(=O)N[C@@H](CCCCN)C(=O)N[C@@H](Cc2ccccc2)C(=O)N[C@@H](CC(C)C)C(N)=O)NC(=O)[C@H](C)NC(=O)[C@H](CCCCN)NC(=O)[C@H](CC(C)C)NC(=O)[C@H](CCSC)NC(=O)[C@H](C(C)C)NC(=O)[C@H](CCCCN)NC1=O)[C@@H](C)O)C(C)C)C(C)C [Analogue 2a] | ≥ 1 µM | 0.9 ± 0.08 µM | > 10 µM | > 600 pmol/g | > 10 µM | 35.8 ± 1.9 µM |  |  |  | equipotent |
| H-IDWKKVDWKKVSKKTSKVMLKASKFL-NH2 [Analogue 3b] |  |  | > 20 µM | > 600 pmol/g | > 20 µM | 64.9 ± 6.3 µM |  | inactive |  |  |
